Source: patent US20070049564A1 (Wyeth, priority 2005, published 2007)
≈ marks a conversion by molar mass, not a printed value. Like-named read-outs stand apart in the source and are kept apart here.

Key:
E. coli GC 2236 = assay: MIC, broth microdilution; conditions: Escherichia coli, GC2236, E. coli GC 2236
Procedure: Antimicrobial susceptibility testing. The in vitro activities of the antibiotics are determined by the broth microdilution method as recommended by the National Committee for Clinical Laboratory Standards (NCCLS) (1). Mueller-Hinton II broth (MHBII)(BBL Cockeysville, Md.) is the medium employed in the testing procedures. Microtiter plates containing serial dilutions of each antimicrobial agent are inoculated with each organism to yield the appropriate density (10^5 CFU/ml) in a 100 μl final volume. The plates are incubated for 18-22 hours at 35° C. in ambient air. […] Standard Pharmacological Test Procedures
Presented in Tables I-XIII are representative compounds of Formula I which were evaluated against a panel of 40 selected gram-positive and gram-negative bacteria strains by pre-incubation in water, mouse serum or human serum. Representative compounds were first incubated in mouse serum for an hour prior to the in vitro testing against a panel of selected gram-positive and gram-negative bacteria strains. All compounds were also pre-incubated in water for an hour prior to testing as control. Representative compounds of Formula I were incubated in human serum prior to MIC determination.

E. coli GC 2235 = assay: MIC, broth microdilution; conditions: Escherichia coli, GC2235, E. coli GC 2235
E. coli GC 2233 = assay: MIC, broth microdilution; conditions: Escherichia coli, GC2233, E. coli GC 2233
E. coli GC 2270 = assay: MIC, broth microdilution; conditions: Escherichia coli, GC2270, E. coli GC 2270
E. coli GC 2271 = assay: MIC, broth microdilution; conditions: Escherichia coli, GC2271, E. coli GC 2271
Procedure: (§1) Antimicrobial susceptibility testing. The in vitro activities of the antibiotics are determined by the broth microdilution method as recommended by the National Committee for Clinical Laboratory Standards (NCCLS) (1). Mueller-Hinton II broth (MHBII)(BBL Cockeysville, Md.) is the medium employed in the testing procedures. Microtiter plates containing serial dilutions of each antimicrobial agent are inoculated with each organism to yield the appropriate density (10^5 CFU/ml) in a 100 μl final volume. The plates are incubated for 18-22 hours at 35° C. in ambient air.
(§2) Representative compounds were first incubated in mouse serum for an hour prior to the in vitro testing against a panel of selected gram-positive and gram-negative bacteria strains. All compounds were also pre-incubated in water for an hour prior to testing as control.

E. coli GC 3226 = assay: MIC, broth microdilution; conditions: Escherichia coli, GC3226, E. coli GC 3226
E. coli GC 1073 = assay: MIC, broth microdilution; conditions: Escherichia coli, GC1073, E. coli GC 1073
S. typhimurium GC 2172 = assay: MIC, broth microdilution; conditions: Salmonella enterica, TYPHIMURIUM, S. typhimurium GC 2172
S. aureus GC 1079 = assay: MIC, broth microdilution; conditions: Staphylococcus aureus, GC1079, S. aureus GC 1079
S. aureus GC 6335 = assay: MIC, broth microdilution; conditions: Staphylococcus aureus, GC6335, S. aureus GC 6335
Procedure: as §1
(§3) Representative compounds were first incubated in mouse serum for an hour prior to the in vitro testing against a panel of selected gram-positive and gram-negative bacteria strains. All compounds were also pre-incubated in water for an hour prior to testing as control. Representative compounds of Formula I were incubated in human serum prior to MIC determination.

S. aureus GC 6469 = assay: MIC, broth microdilution; conditions: Staphylococcus aureus, GC6469, S. aureus GC 6469
Procedure: as §1, §2

E. faecalis GC 4555 = assay: MIC, broth microdilution; conditions: Enterococcus faecalis, GC4555, E. faecalis GC 4555
E. faecalis GC 2265 = assay: MIC, broth microdilution; conditions: Enterococcus faecalis, GC2265, E. faecalis GC 2265
E. faecium GC 4556 = assay: MIC, broth microdilution; conditions: Enterococcus faecium, GC4556, E. faecium GC 4556
Procedure: as §1, §3

E. faecium GC 2243 = assay: MIC, broth microdilution; conditions: Enterococcus faecium, GC2243, E. faecium GC 2243
S. pyogenes GC 4563 = assay: MIC, broth microdilution; conditions: Streptococcus pyogenes, GC4563, S. pyogenes GC 4563
S. agalactiae GC 4564 = assay: MIC, broth microdilution; conditions: Streptococcus agalactiae, GC4564, S. agalactiae GC 4564
c. albicans GC 3066 = assay: MIC, broth microdilution
E. coli = assay: Range of MIC for E. coli strains; conditions: Escherichia coli
Staph. = assay: Range of MIC for Staph. strains, including MRSA; conditions: Staphylococcus aureus, MRSA

## CCCCN(CC(=O)Nc1cc(N(C)C)c2c(c1O)C(=O)C1=C(O)[C@]3(O)C(=O)C(C(N)=O)=C(O)[C@@H](N(C)C)[C@@H]3C[C@@H]1C2)C(=O)OCOC(=O)C(C)(C)C [Example 13, ({[(2-{[(5aR,6aS,7S,10aS)-9-(aminocarbonyl)-4,7-bis(dimethylamino)-1,8,10a,11-tetrahydroxy-10,12-dioxo-5,5a,6,6a,7,10,10a,12-octahydrotetracen-2-yl]amino}-2-oxoethyl)(butyl)amino]carbonyl}oxy)methyl pivalate]
E. coli GC 2236; Mouse Serum pre-incubation
  MIC: 2 µg/mL (≈ 2.69 µM)
E. coli GC 2236; Water pre-incubation
  MIC: 8 µg/mL (≈ 10.8 µM)
E. coli GC 2235; Mouse Serum pre-incubation
  MIC: 2 µg/mL (≈ 2.69 µM)
E. coli GC 2235; Water pre-incubation
  MIC: 8 µg/mL (≈ 10.8 µM)
E. coli GC 2233; Mouse Serum pre-incubation
  MIC: 2 µg/mL (≈ 2.69 µM)
E. coli GC 2233; Water pre-incubation
  MIC: 8 µg/mL (≈ 10.8 µM)
E. coli GC 2270; Mouse Serum pre-incubation
  MIC: 1 µg/mL (≈ 1.34 µM)
E. coli GC 2270; Water pre-incubation
  MIC: 8 µg/mL (≈ 10.8 µM)
E. coli GC 2271; Mouse Serum pre-incubation
  MIC: 2 µg/mL (≈ 2.69 µM)
E. coli GC 2271; Water pre-incubation
  MIC: 8 µg/mL (≈ 10.8 µM)
E. coli GC 3226; Mouse Serum pre-incubation
  MIC: 2 µg/mL (≈ 2.69 µM)
E. coli GC 3226; Water pre-incubation
  MIC: 16 µg/mL (≈ 21.5 µM)
E. coli GC 1073; Mouse Serum pre-incubation
  MIC: 2 µg/mL (≈ 2.69 µM)
E. coli GC 1073; Water pre-incubation
  MIC: 16 µg/mL (≈ 21.5 µM)
S. typhimurium GC 2172; Mouse Serum pre-incubation
  MIC: 8 µg/mL (≈ 10.8 µM)
S. typhimurium GC 2172; Water pre-incubation
  MIC: 64 µg/mL (≈ 86 µM)
S. aureus GC 1079; Mouse Serum pre-incubation
  MIC: 4 µg/mL (≈ 5.38 µM)
S. aureus GC 1079; Water pre-incubation
  MIC: 4 µg/mL (≈ 5.38 µM)
S. aureus GC 6335; Mouse Serum pre-incubation
  MIC: 2 µg/mL (≈ 2.69 µM)
S. aureus GC 6335; Water pre-incubation
  MIC: 4 µg/mL (≈ 5.38 µM)
S. aureus GC 6469; Mouse Serum pre-incubation
  MIC: 4 µg/mL (≈ 5.38 µM)
S. aureus GC 6469; Water pre-incubation
  MIC: 8 µg/mL (≈ 10.8 µM)
E. faecalis GC 4555; Mouse Serum pre-incubation
  MIC: 2 µg/mL (≈ 2.69 µM)
E. faecalis GC 4555; Water pre-incubation
  MIC: 4 µg/mL (≈ 5.38 µM)
E. faecalis GC 2265; Mouse Serum pre-incubation
  MIC: 4 µg/mL (≈ 5.38 µM)
E. faecalis GC 2265; Water pre-incubation
  MIC: 8 µg/mL (≈ 10.8 µM)
E. faecium GC 4556; Mouse Serum pre-incubation
  MIC: 2 µg/mL (≈ 2.69 µM)
E. faecium GC 4556; Water pre-incubation
  MIC: 8 µg/mL (≈ 10.8 µM)
E. faecium GC 2243; Mouse Serum pre-incubation
  MIC: 2 µg/mL (≈ 2.69 µM)
E. faecium GC 2243; Water pre-incubation
  MIC: 4 µg/mL (≈ 5.38 µM)
S. pyogenes GC 4563; Mouse Serum pre-incubation
  MIC: 0.5 µg/mL (≈ 0.672 µM)
S. pyogenes GC 4563; Water pre-incubation
  MIC: 1 µg/mL (≈ 1.34 µM)
S. agalactiae GC 4564; Mouse Serum pre-incubation
  MIC: 1 µg/mL (≈ 1.34 µM)
S. agalactiae GC 4564; Water pre-incubation
  MIC: 2 µg/mL (≈ 2.69 µM)
c. albicans GC 3066; Candida albicans, GC3066
  MIC: > 64 µg/mL
c. albicans GC 3066; c. albicans GC 3066, Water pre-incubation
  MIC: >64 UG/ML
E. coli; 20 h, read-out: Range of MIC, E. coli (Mouse Serum)
  MIC: 1 to 4 µg/mL (≈ 1.34 to 5.38 µM)
E. coli; read-out: Minimum inhibitory concentration (MIC), E. coli (mouse serum)
  MIC: 1 to 4 µg/mL (≈ 1.34 to 5.38 µM)
E. coli; read-out: Minimum inhibitory concentration (MIC), E. coli (water)
  MIC: 8 to 16 µg/mL (≈ 10.8 to 21.5 µM)
E. coli; read-out: Range of MIC, E. coli (Water)
  MIC: 8 to 16 µg/mL (≈ 10.8 to 21.5 µM)
Staph.; read-out: Minimum inhibitory concentration (MIC), Staph. (mouse serum)
  MIC: 1 to 4 µg/mL (≈ 1.34 to 5.38 µM)
Staph.; read-out: Minimum inhibitory concentration (MIC), Staph. (water)
  MIC: 2 to 8 µg/mL (≈ 2.69 to 10.8 µM)
Staph.; read-out: Range of MIC, Staph (Mouse Serum)
  MIC: 1 to 4 µg/mL (≈ 1.34 to 5.38 µM)
Staph.; read-out: Range of MIC, Staph (Water)
  MIC: 2 to 8 µg/mL (≈ 2.69 to 10.8 µM)
